In patent publication US20220288114A1, “MULTI-AGENT OCULAR FORMULATIONS AND TREATMENT METHODS” (University of Utah Research Foundation, priority 2019, published 2022):

Tests used:
rabbits = conditions: 0.15 mg/ml eye drops 2 times per day for approximately 60 days
Method: Treatment using 0.15 mg/ml copper sulfate pentahydrate in an ophthalmic vehicle is administered at approximately 6 weeks of age to rabbits. Eyedrops are administered 2 times per day for approximately 60 days. Refractive error is measured by an ophthalmologist prior to treatment on day 1 and at subsequent time-points (e.g., 14 days, 27 days, 44 days, and 62 days after the beginning of treatment) depicted in FIG. 3. […] Stable refractive errors are typically obtained after 15 minutes when there is no pupil response. FIG. 3 presents refractive error measurements for the test subjects in each eye.

[1] = system: LNL crosslinks in rabbit cornea; conditions: rabbits; 0.15 mg/ml eye drops twice a day for 6 weeks; LC-MS
Method: After six weeks each group of corneas is dissected, weighed and used for LNL analysis. Samples are reduced with NaBH4 at room temperature then washed twice with water, dried, and hydrolyzed with 6N
HCl in vacuo for 18 hours at 110° C. […] The hydrolysates are dried to evaporate HCL, reconstituted with H2O, and re-dried to remove residual HCl. Post hydrolysis, cross-link enrichment is carried out using a cellulose mini-column method. Samples are then provided for LNL analysis by mass spectroscopy (LC/MS).
To perform liquid chromatography/mass spectroscopy (LC/MS), 1 μL of 100 μg/mL d9-Lysine is added to all samples as an internal standard. A calibration curve is created using serial dilution. Semi-quantitative mass spectral analysis is performed using a Sciex 6500 Q-Trap (Sciex, Farmington, MA). A helicon iHILIC-Fusion 2.1×100 mm column (Umeå, Sweden) is used for chromatography using 10 mM NH4OAc (Buffer A) and ACN (Buffer B). LC/MS is performed in the positive mode with a TurboIon source using optimized source conditions. Quantitative data analysis is conducted using Sciex MultiQuant software.

cornea = conditions: rabbits
Excerpt: The Ocular Response Analyzer (ORA; Reichert, Inc, Buffalo, N.Y.) is a commercially available noncontact tonometer that also assesses the viscoelastic nature of the cornea with bidirectional detection of applanation events to allow in vivo measurements of corneal biomechanical response parameters under air puff loading 42. The system includes an infrared emitter and detector aligned such that applanation produces a spike on the detector with a mirror like reflection from the flattened corneal surface.
Two applanation pressure measurements are reported by the ORA: one while the cornea moves inward, reaching first applanation, at pressure P1, and the other after the cornea recovers from a slight concavity as it moves outward passing through a second applanation at pressure P2. Therefore, these two values, P1 and P2, indicate the pressures associated with a flattened cornea during the loading and unloading cycle, with P2<P1 for a valid measurement. The difference between P1 and P2 is termed corneal hysteresis (CH).
A greater value for Peak 1 or Peak 2 indicates a larger area of applanation which is associated with a stiffer response. Thus, for the current study the
ORA pressure and applanation signals were analyzed using custom software to determine the magnitudes of Peak 1 and Peak 2. ORA measurements were assessed at baseline and every week for 6-8 weeks on the same set of rabbits described in 2.4.b which included 4 groups Sol A, Sol B, and vehicle and no drops. An increase in Peak 1 and Peak 2 can be present after stiffening; therefore, one-tailed t-tests were used for statistical analysis to compare groups.
The times at 3, 4, 5, and 6 weeks for the combined AB (treatment Sol A and treatment Sol B) treatment group were averaged for comparison against no therapy and vehicle. Peak 1 and Peak 2 were compared to both controls.

guinea pigs = test: Refractive error by streak retinoscopy in guinea pigs, 60-day atropine eye drop treatment; assay type: in vivo; conditions: .001% eye drops 2 times per day for approximately 60 days
Method: Treatment using .001% atropine sulfate monohydrate eye drops is administered at approximately 1 week of age to guinea pigs. The eye drops are administered 2 times per day for approximately 60 days. Refractive error is measured by an ophthalmologist prior to treatment on day 1 and at subsequent time-points (e.g., 14 days, 27 days, 44 days, and 62 days after the beginning of treatment) depicted in FIGS. 1A-1C. […] Stable refractive errors are typically obtained after 15 minutes when there is no pupil response.

SMILES: O.O.O.O.O.O=S(=O)([O-])[O-].[Cu+2] [copper sulfate pentahydrate]
- Reduction of myopic progression in the treatment eye compared to control (rabbits): approximately 63%
- LNL crosslinks in treated rabbit cornea compared to control (no treatment) and vehicle group [1]: significant increases

SMILES: O=S(=O)([O-])[O-].[Cu+2] [Copper sulfate]
- Corneal stiffening in vivo as measured by waveform response to air puff deformation (cornea; ORA): generates stiffening in vivo
- Peak 1, treated group AB versus no therapy (cornea; weeks 3, 4, 5 and 6 averaged, combined Sol A and Sol B, one-tailed t-test p=0.0244): significantly greater than no therapy
- Peak 2, treated group AB versus vehicle (cornea; weeks 3, 4, 5 and 6 averaged, combined Sol A and Sol B, p<0.0001): significantly greater
- Peak 2, treated group AB versus no therapy (cornea; weeks 3, 4, 5 and 6 averaged, combined Sol A and Sol B, p=0.0098): significantly greater than no therapy
- Peak 1, treated group AB versus vehicle (cornea; weeks 3, 4, 5 and 6 averaged, combined Sol A and Sol B, p=0.0763): no substantial difference

SMILES: CN1[C@@H]2CC[C@H]1CC(OC(=O)C(CO)c1ccccc1)C2.CN1[C@@H]2CC[C@H]1CC(OC(=O)C(CO)c1ccccc1)C2.O.O=S(=O)(O)O (some centres unmarked) [Atropine, atropine sulfate monohydrate]
- Progression of myopia (refractive error) (guinea pigs): Slows Progression of Myopia
